Where two headings read alike, the source gives them in different places.
Columns and labels:
[1] = tested on: WSU-DLCL2; assay: Methylated lysine of histone-H3 (H3K27Me3) detection by ELISA, WSU-DLCL2 cells; assay type: cell-based; conditions: Homo sapiens, WSUDLCL2, 168 h; WSU-DLCL2, 7 days treatment, H3K27Me3 normalized to total histone-3; read-out: IC50 of cell methylation, WSU-DLCL2
Summary of the method: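 Cells were treated 7 days with compound (4-fold dilutions, 20 uM-0.009 nM), then lysed hypotonically with NaCl adjusted to ~100 mM. Lysate-coated plates were probed by ELISA for H3K27Me3 and total H3 (TMB, A450). Methylation signal was normalised to total H3 before curve fitting.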

[2] = In vivo pharmacokinetic properties in mice; parameters: species or system mouse; conditions: male ICR mice
Summary of the method: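 Male ICR mice, n=3 per group, dosed once at 5 mg/kg IV in 10% DMSO/90% (20% Captisol) or 250 mg/kg intragastrically in 0.5% CMC-Na/0.1% Tween 80 (pH 3-4). EDTA-K2 plasma sampled from 5 min to 24 h; compound levels measured by LC-MS/MS.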

[3] = biological target: EZH2 (Y641N) (Homo sapiens (Human), UniProt Q15910, Y641N); assay: Test on EZH2 (Y641N) inhibitory activity; assay type: biochemical
Sequence of EZH2 (Y641N) (Q15910 whole entry Y641N): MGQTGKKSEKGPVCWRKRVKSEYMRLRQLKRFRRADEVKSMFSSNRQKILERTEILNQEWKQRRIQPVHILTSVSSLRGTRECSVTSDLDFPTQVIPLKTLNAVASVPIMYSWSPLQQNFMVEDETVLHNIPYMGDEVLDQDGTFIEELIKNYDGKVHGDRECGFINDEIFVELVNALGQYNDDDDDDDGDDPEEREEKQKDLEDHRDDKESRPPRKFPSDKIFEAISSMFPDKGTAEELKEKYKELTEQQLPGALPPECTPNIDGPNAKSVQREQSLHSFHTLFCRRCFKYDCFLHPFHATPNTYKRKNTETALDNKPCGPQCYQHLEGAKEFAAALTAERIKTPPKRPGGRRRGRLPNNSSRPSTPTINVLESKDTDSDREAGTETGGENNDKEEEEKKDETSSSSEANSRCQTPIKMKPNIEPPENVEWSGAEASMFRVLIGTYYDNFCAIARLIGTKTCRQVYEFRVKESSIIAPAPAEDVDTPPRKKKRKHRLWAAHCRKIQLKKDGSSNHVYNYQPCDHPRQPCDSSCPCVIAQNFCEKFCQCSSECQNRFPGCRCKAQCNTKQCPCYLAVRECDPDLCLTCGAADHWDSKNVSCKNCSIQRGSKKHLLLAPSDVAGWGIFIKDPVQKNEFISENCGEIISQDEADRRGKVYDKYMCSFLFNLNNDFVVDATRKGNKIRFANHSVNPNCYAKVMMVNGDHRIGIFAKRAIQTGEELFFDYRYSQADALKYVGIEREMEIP
Sequence of EZH2 (Y641N) (O75530 whole entry partner): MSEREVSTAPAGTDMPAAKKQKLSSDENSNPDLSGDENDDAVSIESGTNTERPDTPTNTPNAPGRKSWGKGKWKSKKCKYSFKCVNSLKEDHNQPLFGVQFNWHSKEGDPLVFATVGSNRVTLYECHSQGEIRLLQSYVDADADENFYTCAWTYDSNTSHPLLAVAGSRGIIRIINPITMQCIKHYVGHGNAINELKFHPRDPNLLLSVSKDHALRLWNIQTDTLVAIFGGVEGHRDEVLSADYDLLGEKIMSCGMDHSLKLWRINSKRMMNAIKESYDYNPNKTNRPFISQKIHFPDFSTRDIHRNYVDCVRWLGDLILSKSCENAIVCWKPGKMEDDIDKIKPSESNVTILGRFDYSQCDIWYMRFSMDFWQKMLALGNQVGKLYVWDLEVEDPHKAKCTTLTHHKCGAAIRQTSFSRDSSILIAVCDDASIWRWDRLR
Sequence of EZH2 (Y641N) (Q15022 whole entry partner): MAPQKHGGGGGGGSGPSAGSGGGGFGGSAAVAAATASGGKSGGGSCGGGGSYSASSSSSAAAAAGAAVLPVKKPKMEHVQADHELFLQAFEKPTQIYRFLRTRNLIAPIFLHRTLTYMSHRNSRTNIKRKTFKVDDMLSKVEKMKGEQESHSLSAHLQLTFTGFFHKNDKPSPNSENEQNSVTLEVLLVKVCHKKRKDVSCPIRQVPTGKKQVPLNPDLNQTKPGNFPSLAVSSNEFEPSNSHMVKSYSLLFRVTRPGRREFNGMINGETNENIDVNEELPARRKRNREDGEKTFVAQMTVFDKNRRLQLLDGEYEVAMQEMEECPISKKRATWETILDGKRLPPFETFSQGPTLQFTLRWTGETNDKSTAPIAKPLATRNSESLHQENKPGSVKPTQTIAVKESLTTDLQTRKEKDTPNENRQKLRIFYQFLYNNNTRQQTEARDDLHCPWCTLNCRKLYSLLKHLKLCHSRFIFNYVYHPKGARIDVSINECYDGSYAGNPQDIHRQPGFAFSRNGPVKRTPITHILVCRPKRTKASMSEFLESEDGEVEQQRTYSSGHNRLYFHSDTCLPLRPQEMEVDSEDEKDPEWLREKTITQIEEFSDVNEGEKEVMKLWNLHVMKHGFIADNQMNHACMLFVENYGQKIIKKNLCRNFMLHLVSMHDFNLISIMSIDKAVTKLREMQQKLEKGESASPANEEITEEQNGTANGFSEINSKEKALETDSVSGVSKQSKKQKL
Procedure: Compounds at different concentrations were dissolved in 100% DMSO and transferred to test plates, and the final concentration of DMSO was 1%. Enzyme solution and substrate SAM solution were prepared with 1-fold reaction buffer (optimized Tris buffer). 5 uL of enzyme solution was added to the test plate and wells only added with 5 uL of reaction buffer were used as negative control wells. After incubation at room temperature for 15 min, the plate was added with 5 uL of substrate solution per well to initiate the reaction, and then incubated at room temperature for 60 min. 5 uL of receptor solution was added and the plate was incubated away from light at room temperature for 60 min. 10 uL of donor solution was added and the plate was incubated away from light at room temperature for 30 min. The endpoint values were read on the Envision and the IC50 was calculated.
Data were fitted by GraphPad Prism 5 software and inhibition rate was calculated according to equation (1) Inh %=(Max−Signal)/(Max−Min)×100 (1)
IC50 was calculated using equation (2) Y=Bottom+(Top−Bottom)/(1+10^((Log IC50−X)×Hill Slope))
Y: inhibition rate; X: concentration of the compound

[4] = tested on: WSU-DLCL2 cells; assay: Experiment on WSU-DLCL2 cell proliferation (Calcein-AM); assay type: cell-based; conditions: Homo sapiens
Procedure: WSU-DLCL2 cells were plated in a 96-well plate and 100 uL of cells (a density of 1×10^5 cells/mL) and 50 uL of compound stock at 3-fold concentration was added to each well, and the final volume was 150 uL/well. After 6 days of culturing, on day 7, the cells in the well plate were mixed well by pipetting, and 50 uL of the cell suspension was pipetted to be tested for cell viability using Calcein-AM. 50 uL of the cell suspension was added to a 96-well plate coated by poly-D-Lysine, and then 50 uL of HBSS containing 2 uM Calcein-AM was added to make the final concentration of Calcein-AM 1 uM. After incubation for 10 min at room temperature, the cells were rapidly centrifuged to be deposited on the bottom of the plate. The cells were cultured in the incubator for another 40 min and then the plate was read on Acumen.
The remaining cells were diluted and then plated in a 96-well plate, and 100 uL of cells and 50 uL of a compound at 3-fold concentration were added to each well for further culturing until day 14, and the cell viability was detected as described above. The IC50 was calculated.

CCN(c1cc(O[C@H]2C[C@H](N3C[C@@H](C)O[C@@H](C)C3)C2)cc(C(=O)NCc2c(C)cc(C)[nH]c2=O)c1C)C1CCC(F)(F)CC1 [Example 45, 3-((4,4-difluorocyclohexyl)(ethyl)amino)-N-((4,6-dimethyl-2-oxo-1,2-dihydropyridin-3-yl)methyl)-5-(trans-3-(cis-2,6-dimethylmorpholinyl)cyclobutoxy)-2-methylbenzamide]
IC50 [1]: 0.05 to 0.5 µM
F ([2]; intragastric 250 mg/kg vs intravenous 5 mg/kg): 43.5%
CL ([2]; single intravenous 5 mg/kg and intragastric 250 mg/kg study): 37.0 ± 8.82 mL/min/lg
AUC(0-inf) ([2]; mouse, plasma, oral, single intravenous 5 mg/kg and intragastric 250 mg/kg study): 50900 ng·h/mL
Cmax ([2]; mouse, plasma, oral, single intravenous 5 mg/kg and intragastric 250 mg/kg study, read-out: Cmax): 10500 ± 436 ng/mL
Tmax ([2]; mouse, plasma, oral, single intravenous 5 mg/kg and intragastric 250 mg/kg study, read-out: Tmax): 1 h
half-life ([2]; mouse, plasma, single intravenous 5 mg/kg and intragastric 250 mg/kg study): 7.44 ± 2.75 h
IC50 [3]: 0.0052 µM
IC50 ([4]; WSUDLCL2, 168 h, WSU-DLCL2, Day 7, read-out: IC50 WSU-DLCL2 proliferation Day 7): 0.091 µM
IC50 ([4]; WSUDLCL2, 336 h, WSU-DLCL2, Day 14, read-out: IC50 WSU-DLCL2 proliferation Day 14): 0.018 µM

— patent US12390472B2 (SUZHOU SINOVENT PHARMACEUTICALS CO., LTD., priority 2018, dated 2025)
